Assay results taken from patent publication EP0371837A2, “Process for the synthesis of esters of dithiocarbamic acids by substitution of hydroxylated positions of mono- or polyhydroxylated molecules, products of this process and their uses” (PASTEUR MERIEUX SERUMS ET VACCINS, priority 1988, dated 1990).

Columns and labels:
[1] = Toxicity of lithium dithiocarbamates (method not described); conditions: statement in words, no test described
[2] = Activity of lithium dithiocarbamates (method not described); conditions: statement in words, no test described; same applications as the esters (immunomodulator, antiviral)

## CCN(CC)C(=S)S [diéthyldithiocarbamate de lithium, N,N diéthyl dithiocarbamate de lithium]
[1]
  toxicité: peu toxiques
[2]
  activité: très actifs
